Data published in patent publication US6787525B1, “Glyceryl nucleotides, method for the production thereof and their use” (priority 1998, dated 2004).

What was measured:
HL-60(TB) = conditions: for GI50 / TGI: Leukemia, 48-hour incubation; for CC50: read-out: LC50, Leukemia, 48-hour incubation
SR = test: In vitro cytostatic effect (SRB): SR, Leukemia; conditions: for CC50: read-out: LC50, 48-hour incubation
M14 = test: In vitro cytostatic effect (SRB): M14, Melanoma; conditions: for GI50 / TGI: 48-hour incubation; for CC50: read-out: LC50, 48-hour incubation
K-562 = test: In vitro cytostatic effect (SRB): K-562, Leukemia; conditions: for GI50 / TGI: 48-hour incubation; for CC50: read-out: LC50, 48-hour incubation
MOLT-4 = test: In vitro cytostatic effect (SRB): MOLT-4, Leukemia; conditions: for GI50 / TGI: 48-hour incubation; for CC50: read-out: LC50, 48-hour incubation
UACC-62 = test: In vitro cytostatic effect (SRB): UACC-62, Melanoma; conditions: for GI50 / TGI: 48-hour incubation; for CC50: read-out: LC50, 48-hour incubation
CCRF-CEM = test: In vitro cytostatic effect (SRB): CCRF-CEM, Leukemia; conditions: for CC50: read-out: LC50, 48-hour incubation
LOX IMVI = test: In vitro cytostatic effect (SRB): LOX IMVI, Melanoma; conditions: for GI50 / TGI: 48-hour incubation; for CC50: read-out: LC50, 48-hour incubation
MALME-3M = test: In vitro cytostatic effect (SRB): MALME-3M, Melanoma; conditions: for GI50 / TGI: 48-hour incubation; for CC50: read-out: LC50, 48-hour incubation
NCI-H23 = test: In vitro cytostatic effect (SRB): NCI-H23, Lung cancer; conditions: for GI50 / TGI: 48-hour incubation; for CC50: read-out: LC50, 48-hour incubation
SN12C = test: In vitro cytostatic effect (SRB): SN12C, Kidney cancer; conditions: for GI50 / TGI: 48-hour incubation; for CC50: read-out: LC50, 48-hour incubation
MDA-N = test: In vitro cytostatic effect (SRB): MDA-N, Breast cancer; conditions: for GI50 / TGI: 48-hour incubation; for CC50: read-out: LC50, 48-hour incubation
T-47D = test: In vitro cytostatic effect (SRB): T-47D, Breast cancer; conditions: for GI50 / TGI: 48-hour incubation; for CC50: read-out: LC50, 48-hour incubation
NCI-H226 = test: In vitro cytostatic effect (SRB): NCI-H226, Lung cancer; conditions: for GI50 / TGI: 48-hour incubation; for CC50: read-out: LC50, 48-hour incubation
NCI-H460 = test: In vitro cytostatic effect (SRB): NCI-H460, Lung cancer; conditions: for GI50 / TGI: 48-hour incubation; for CC50: read-out: LC50, 48-hour incubation
NCI-H522 = test: In vitro cytostatic effect (SRB): NCI-H522, Lung cancer; conditions: for GI50 / TGI: 48-hour incubation; for CC50: read-out: LC50, 48-hour incubation
BT-549 = test: In vitro cytostatic effect (SRB): BT-549, Breast cancer; conditions: for GI50 / TGI: 48-hour incubation; for CC50: read-out: LC50, 48-hour incubation
IGROV1 = test: In vitro cytostatic effect (SRB): IGROV1, Ovarian cancer; conditions: for GI50 / TGI: 48-hour incubation; for CC50: read-out: LC50, 48-hour incubation
RXF 393 = test: In vitro cytostatic effect (SRB): RXF 393, Kidney cancer; conditions: for GI50 / TGI: 48-hour incubation; for CC50: read-out: LC50, 48-hour incubation
HS 578T = test: In vitro cytostatic effect (SRB): HS 578T, Breast cancer; conditions: for GI50 / TGI: 48-hour incubation; for CC50: read-out: LC50, 48-hour incubation
HT29 = test: In vitro cytostatic effect (SRB): HT29, Intestinal cancer; conditions: for GI50 / TGI: 48-hour incubation; for CC50: read-out: LC50, 48-hour incubation
KM12 = test: In vitro cytostatic effect (SRB): KM12, Intestinal cancer; conditions: for GI50 / TGI: 48-hour incubation; for CC50: read-out: LC50, 48-hour incubation
SW-620 = test: In vitro cytostatic effect (SRB): SW-620, Intestinal cancer; conditions: for GI50 / TGI: 48-hour incubation; for CC50: read-out: LC50, 48-hour incubation
COLO205 = test: In vitro cytostatic effect (SRB): COLO205, Intestinal cancer; conditions: for GI50 / TGI: 48-hour incubation; for CC50: read-out: LC50, 48-hour incubation
NCI/ADR-RES = test: In vitro cytostatic effect (SRB): NCI/ADR-RES, Breast cancer; conditions: for CC50: read-out: LC50, 48-hour incubation
SF-295 = test: In vitro cytostatic effect (SRB): SF-295, Cancer of the central nervous system; conditions: for GI50 / TGI: 48-hour incubation; for CC50: read-out: LC50, 48-hour incubation
SF-539 = test: In vitro cytostatic effect (SRB): SF-539, Cancer of the central nervous system; conditions: for GI50 / TGI: 48-hour incubation; for CC50: read-out: LC50, 48-hour incubation
SNB-19 = test: In vitro cytostatic effect (SRB): SNB-19, Cancer of the central nervous system; conditions: for GI50 / TGI: 48-hour incubation; for CC50: read-out: LC50, 48-hour incubation

Nc1ccn(C2CCC(COP(=O)(O)OCC(O)COP(=O)(O)OCC3OC(n4cc(F)c(=O)[nH]c4=O)CC3O)O2)c(=O)n1 (racemic) [NSC 704533, 2′,3′-didesoxycytidylyl-(5′→1)-racglycerylyl-(3→5′)-5-fluoro-2′-desoxyuridine]
GI50 (HL-60(TB)): 0.0715 µM
TGI (HL-60(TB)): >1.00E − 04 mol/l
CC50 (HL-60(TB)): > 100 µM
GI50 (SR; 48-hour incubation): < 0.01 µM
TGI (SR; 48-hour incubation): >1.00E − 04 mol/l
CC50 (SR): > 100 µM
GI50 (M14): 0.203 µM
TGI (M14): >1.00E − 04 mol/l
CC50 (M14): > 100 µM
GI50 (K-562): 2.57 µM
TGI (K-562): >1.00E − 04 mol/l
CC50 (K-562): > 100 µM
GI50 (MOLT-4): 0.104 µM
TGI (MOLT-4): >1.00E − 04 mol/l
CC50 (MOLT-4): > 100 µM
GI50 (UACC-62): 0.55 µM
TGI (UACC-62): >1.00E − 04 mol/l
CC50 (UACC-62): > 100 µM
TGI (CCRF-CEM; 48-hour incubation): >1.00E − 04 mol/l
CC50 (CCRF-CEM): > 100 µM
GI50 (LOX IMVI): 0.0101 µM
TGI (LOX IMVI): >1.00E − 04 mol/l
CC50 (LOX IMVI): > 100 µM
GI50 (MALME-3M): > 100 µM
TGI (MALME-3M): >1.00E − 04 mol/l
CC50 (MALME-3M): > 100 µM
GI50 (NCI-H23): 0.0979 µM
TGI (NCI-H23): >1.00E − 04 mol/l
CC50 (NCI-H23): > 100 µM
GI50 (SN12C): 0.173 µM
TGI (SN12C): >1.00E − 04 mol/l
CC50 (SN12C): > 100 µM
GI50 (MDA-N): 25.4 µM
TGI (MDA-N): >1.00E − 04 mol/l
CC50 (MDA-N): > 100 µM
GI50 (T-47D): 1.42 µM
TGI (T-47D): >1.00E − 04 mol/l
CC50 (T-47D): > 100 µM
GI50 (NCI-H226): > 100 µM
TGI (NCI-H226): >1.00E − 04 mol/l
CC50 (NCI-H226): > 100 µM
GI50 (NCI-H460): < 0.01 µM
TGI (NCI-H460): >1.00E − 04 mol/l
CC50 (NCI-H460): > 100 µM
GI50 (NCI-H522): 0.746 µM
TGI (NCI-H522): >1.00E − 04 mol/l
CC50 (NCI-H522): > 100 µM
GI50 (BT-549): 4.15 µM
TGI (BT-549): >1.00E − 04 mol/l
CC50 (BT-549): > 100 µM
GI50 (IGROV1): 68 µM
TGI (IGROV1): >1.00E − 04 mol/l
CC50 (IGROV1): > 100 µM
GI50 (RXF 393): 5.12 µM
TGI (RXF 393): >1.00E − 04 mol/l
CC50 (RXF 393): > 100 µM
GI50 (HS 578T): 0.732 µM
TGI (HS 578T): >1.00E − 04 mol/l
CC50 (HS 578T): > 100 µM
GI50 (HT29): 1.88 µM
TGI (HT29): >1.00E − 04 mol/l
CC50 (HT29): > 100 µM
GI50 (KM12): 14.5 µM
TGI (KM12): >1.00E − 04 mol/l
CC50 (KM12): > 100 µM
GI50 (SW-620): > 100 µM
TGI (SW-620): >1.00E − 04 mol/l
CC50 (SW-620): > 100 µM
GI50 (COLO205): 17.7 µM
TGI (COLO205): >1.00E − 04 mol/l
CC50 (COLO205): > 100 µM
GI50 (NCI/ADR-RES; 48-hour incubation): 0.695 µM
TGI (NCI/ADR-RES; 48-hour incubation): >1.00E − 04 mol/l
CC50 (NCI/ADR-RES): > 100 µM
GI50 (SF-295): 0.0345 µM
TGI (SF-295): >1.00E − 04 mol/l
CC50 (SF-295): > 100 µM
GI50 (SF-539): 0.0216 µM
TGI (SF-539): >1.00E − 04 mol/l
CC50 (SF-539): > 100 µM
GI50 (SNB-19): 0.25 µM
TGI (SNB-19): >1.00E − 04 mol/l
CC50 (SNB-19): > 100 µM

CCCCCCCCCCCCCCCCCCOC(COP(=O)(O)OCC1OC(n2cc(F)c(=O)[nH]c2=O)CC1O)COP(=O)(O)OCC1OC(n2ccc(N)nc2=O)C(O)C1O (racemic) [NSC 698688-A/1, arabinocytidylyl-(5′→1)-2-O-octadecyl-rac-glycerylyl-(3→5′)-5-fluoro-2′-deoxyuridine]
GI50 (HL-60(TB)): 3.66 µM
TGI (HL-60(TB)): >1.00E − 04 mol/l
CC50 (HL-60(TB)): > 100 µM
TGI (SR; 48-hour incubation): >1.00E − 04 mol/l
CC50 (SR): > 100 µM
GI50 (M14): 3.53 µM
TGI (M14): 8.62E − 05 mol/l
CC50 (M14): > 100 µM
GI50 (K-562): 3.35 µM
TGI (K-562): >1.00E − 04 mol/l
CC50 (K-562): > 100 µM
GI50 (MOLT-4): 0.467 µM
TGI (MOLT-4): >1.00E − 04 mol/l
CC50 (MOLT-4): > 100 µM
GI50 (UACC-62): 1.77 µM
TGI (UACC-62): >1.00E − 04 mol/l
CC50 (UACC-62): > 100 µM
GI50 (CCRF-CEM; 48-hour incubation): 1.28 µM
TGI (CCRF-CEM; 48-hour incubation): >1.00E − 04 mol/l
CC50 (CCRF-CEM): > 100 µM
GI50 (LOX IMVI): 1.4 µM
TGI (LOX IMVI): >1.00E − 04 mol/l
CC50 (LOX IMVI): > 100 µM
GI50 (MALME-3M): > 100 µM
TGI (MALME-3M): >1.00E − 04 mol/l
CC50 (MALME-3M): > 100 µM
GI50 (NCI-H23): 7.23 µM
TGI (NCI-H23): >1.00E − 04 mol/l
CC50 (NCI-H23): > 100 µM
GI50 (SN12C): 13.3 µM
TGI (SN12C): >1.00E − 04 mol/l
CC50 (SN12C): > 100 µM
GI50 (MDA-N): > 100 µM
TGI (MDA-N): >1.00E − 04 mol/l
CC50 (MDA-N): > 100 µM
GI50 (T-47D): > 100 µM
TGI (T-47D): >1.00E − 04 mol/l
CC50 (T-47D): > 100 µM
GI50 (NCI-H226): 75.9 µM
TGI (NCI-H226): >1.00E − 04 mol/l
CC50 (NCI-H226): > 100 µM
GI50 (NCI-H460): 0.0466 µM
TGI (NCI-H460): 2.79E − 05 mol/l
CC50 (NCI-H460): > 100 µM
GI50 (NCI-H522): 16.2 µM
TGI (NCI-H522): >1.00E − 04 mol/l
CC50 (NCI-H522): > 100 µM
GI50 (BT-549): 14.5 µM
TGI (BT-549): 8.69E − 05 mol/l
CC50 (BT-549): > 100 µM
GI50 (IGROV1): 13.6 µM
TGI (IGROV1): >1.00E − 04 mol/l
CC50 (IGROV1): > 100 µM
GI50 (RXF 393): 10.2 µM
TGI (RXF 393): 2.86E − 05 mol/l
CC50 (RXF 393): 80 µM
GI50 (HS 578T): > 100 µM
TGI (HS 578T): >1.00E − 04 mol/l
CC50 (HS 578T): > 100 µM
GI50 (HT29): 12.5 µM
TGI (HT29): >1.00E − 04 mol/l
CC50 (HT29): > 100 µM
GI50 (KM12): 74.7 µM
TGI (KM12): >1.00E − 04 mol/l
CC50 (KM12): > 100 µM
GI50 (SW-620): 62.8 µM
TGI (SW-620): >1.00E − 04 mol/l
CC50 (SW-620): > 100 µM
GI50 (COLO205): 10.5 µM
TGI (COLO205): 3.88E − 05 mol/l
CC50 (COLO205): > 100 µM
TGI (NCI/ADR-RES; 48-hour incubation): >1.00E − 04 mol/l
CC50 (NCI/ADR-RES): > 100 µM
GI50 (SF-295): 0.799 µM
TGI (SF-295): >1.00E − 04 mol/l
CC50 (SF-295): > 100 µM
GI50 (SF-539): 0.488 µM
TGI (SF-539): 1.03E − 05 mol/l
CC50 (SF-539): 80.3 µM
GI50 (SNB-19): 0.919 µM
TGI (SNB-19): 2.37E − 05 mol/l
CC50 (SNB-19): 64.1 µM
